Holding throughout (type): in vivo
The test system of test [1] is Anagallis arvensis. Put plainly: TLC plant biomarker pattern after herbicide spraying (greenhouse). As for the experimental part:
(§1) The experiments were performed in the green-house at the National Environmental Research Institute, Silkeborg, Denmark. All the seeds needed light to germinate, and were sown at the soil surface in individual 11 cm pots. The soil used during the experiments contained: (SM Growing Mould (Growing medium by special soil (sphagnum) added clay granulate), 0-30 mm; grade of turnover 55-75; added per m^3: 3 kg lime (white chalk), 1.5 kg dolit chalk, 40 kg clay granulate; Fertilizer added granulate: NO3-N: 55.0 g; NH4-N: 65.0 g; P: 106.6 g; K: 224.0 g; Mg: 22 g; Micro nutrients added in chelate form, Mo in uorganic form: B-Boron: 1 g; Cu-copper: 6 g; Mn-Manganese: 3 g; Zinc-Zn: 3 g: Fe-iron: 6 g; Mo- molybdenum: 1.4 g).
(§2) During the experiments plants were watered from below, and the temperature in the green-house was maintained between 15° C. and 25° C. with variations due to external weather, and the photoperiod was 16th daylight. The green-house is divided into different units, which allowed for the separate maintenance of the control plants from the sprayed plants to avoid undesirable effects due to vapour drift.
(§3) Glyphosate (Roundup Bio (360 g L^−1) was supplied by Monsanto Denmark A/S. Recommended field dose=1,44 kg a.i. ha^−1. In all the experiments, an automatic sprayer (designed in Denmark by Jens Kristensen 1994) was used where the herbicide application is achieved by moving boom equipment with two ordinary hydraulic flat fan nozzles (Hardi 4110-16). Two pots per spray event were placed in the middle of the spray chamber at 50 cm distance from the nozzle, delivering 200 L of water per-hectare with a desired herbicide concentration (working pressure 2 bars; speed of spray boom=4.7 km h^−1). The spraying was performed starting with the lowest concentration first, progressing towards the highest concentration. Between each herbicide, the sprayer was thoroughly rinsed several times with water. The control plants were sprayed with water.
(§4) The fresh plant material was pressed using a hand press. The extract was immediately centrifuged. (3000 rpm) for 10 minutes. The supernatant was used for analysis. The extracts were kept cool or right above 0° C. during the test to avoid decomposition of biomarkers.
(§5) Freeze-dried plant material was crushed and 250 mg was extracted with 5.00 ml 75% ethanol in an ultrasonic bath for 2 hours. The temperature was kept <0° C. (using ice) during the extraction to avoid decomposition of biomarkers. The extract was centrifuged (3000 rpm) for 10 minutes. The supematant was used for analysis and were kept cool during the test to avoid decomposition of biomarkers.
(§6) The two extracts (freshtfresh ethanol) were applicated immediately on a TLC plate (10 μl on both TLC-Plate types (see below) using cool air-drying. The 75% ethanolic extract was applicated 10 μl on Silica-gel TLC-plates and 5 μl on Cellulose TLC-plates (see below). The fresh/fresh ethanolic extractsare recommended to perform if fresh plant material are to be analysed (field-test). The freeze-dried or frozen plant material extraction Is recommended if the analysis are performed in the laboratory.
[…] Derivatisation: Stock solution 1:50% sulfuric acid in 96% ethanol; Stock solution 2: 2% vanillin in absolut alcohol; Derivatisation-solvent, Fresh produced before us, stock solution 1 and stock solution 2 (1:10); Aftercare: 120° C. in 2-3 min. The plate is valuated visually. The system detects higher alcoholics, phenolic compounds, steroids and etheric oils (Stahl 1969), terpenoids, phenyl propanolds, phenolic compounds (Wagner etea. 1984)
TLC-System 7: HPTLC-Alufolie Silica Gel 60 F2u, Merck 1.05548 (10×10 cm); 10 μl plant extracts plants exposed to glyphosate and control plants; eluted in n-butanol: acetic acid: water (4:1:5) (upper phase after 5 minutes shaking). Derivatisation: 0,5 g p-anisaldehyde diluted in 10 ml conc. acetic acid and 85 ml absolute alcohol is and 5 ml conc. sulfuric acid (added in the following row). The plate is heated to. […]

For test [2], the system named is Centauréa cýanus. The description is as above.
Test [3] concerns Plantágo lanceoláta. The test is described as above. As for the experimental part: as §1, §2, §3, §4, §5, §6
(§7) TLC-System 1: HPTLC-Alufolie Silica Gel 60 F254, Merck 1.05548 (10×10 cm); 10 μl plant extracts plants exposed to glyphosate and control plants; eluted in n-butanol acetic acid: water (4:1:5) (upper phase after 5 minutes shaking). Derivatisation: Stock solution 1:50% sulfuric acid in 96% ethanol; Stock solution 2: 2% vanillin in absolut alcohol; Derivatisation-solvent, Fresh produced before us, stock solution 1 and stock solution 2 (1:10); Aftercare: 120° C. in 2-3 min. The plate is valuated visually. The system detects higher alcoholics, phenolic compounds, steroids and etheric oils (Stahl 1969), terpenoids, phenyl propanolds, phenolic compounds (Wagner etea. 1984) […]

In test [4] the test system is Anagallis arvensis. The test can be described thus: Visual effect rating (0-9) after herbicide spraying. Particulars: at presence of TLC 7 biomarker. The text has this:
(§8) Four, eight, sixteen and thirty two days after spraying, visual effects on plants were noted before harvest, using the rating chart described in Hamil. et al. (1977) and Boutin et al. (1993); a rating of zero indicates full growth and vigour, and a rating of nine indicates no growth/mortality.
(§9) The min. visual effect (VE) of the presence of plant biomarkers is rated as described by Hamil et al., (1977) and Boutin et al. (1993).

Test [5] deals with Centauréa cýanus. The description is as above.
Description: as §8, §9

Test [6] concerns Lólium perénne. The description is as above.
Description: as §8, §9

The test system of test [7] is Plantágo lanceoláta. Described as above.
Description: as §8, §9

Test [8] deals with Lólium perénne. The test can be described thus: TLC plant biomarker pattern after herbicide spraying (greenhouse).
The subject of test [9] is Lólium perénne. The test is described as above. Particulars: TLC 1 (non-specific compounds). As for the experimental part:
as §1, §2, §3, §4, §5, §6, §7

The mark [10] stands for this setting: at presence of TLC 4d biomarker.

Take `CCC(CC)Nc1c([N+](=O)[O-])cc(C)c(C)c1[N+](=O)[O-]` [Pendimethalin]: the “Min. of label dose of herbicide with effect” value in [1] (TLC 1 (non-specific compounds)) amounted to 10%; in [1] (TLC 7 (non-specific compounds)), 10%; in test [1] (TLC 4d (amino acids)), 1%; in [2] (TLC 2 (phenolic compounds)), 1%; in test [2] (TLC 4d (amino acids)), 1%; in test [3] (TLC 2 (phenolic compounds)) it was 1%. The “Min. of label dose of herbicide with effect” value in test [3] (TLC 6 (lipids and terpens)) was 1%; in [3] (TLC 4d (amino acids)), 1%; in test [8] (TLC 7 (non-specific compounds)) it was 1%; in test [8] (TLC 4d (amino acids)) it was 1%. The Min. visual effect is reported as 3 in test [4]; 0 in [5] (at presence of TLC 2 biomarker); 0 in test [5] (setting [10]); 0 in [6] (at presence of TLC 7 biomarker); 0 in test [6] (setting [10]); 0 in test [7] (at presence of TLC 2 biomarker). For the same compound, the Min. visual effect in test [7] (at presence of TLC 6 biomarker) and in test [7] (setting [10]) was 0 throughout. Moreover, the “Days after exposure (biomarker present)” value in [8] (TLC 7 (non-specific compounds)) is 8, 16 days; in test [8] (TLC 4d (amino acids)), 4, 8, 16, 32 days.
On to `COC(=O)c1ccccc1S(=O)(=O)NC(=O)Nc1nc(C)nc(OC)n1` [Metsulfuron methyl], for which the “Min. of label dose of herbicide with effect” value was 1% in [1] (TLC 7 (non-specific compounds)); 1% in test [2] (TLC 2 (phenolic compounds)); 1% in test [2] (TLC 6 (lipids and terpens)); 1% in test [2] (TLC 7 (non-specific compounds)); 1% in test [2] (TLC 4d (amino acids)); 1% in [3] (TLC 1 (non-specific compounds)). The “Min. of label dose of herbicide with effect” value in [3] (TLC 2 (phenolic compounds)) is listed as 1%; in [3] (TLC 6 (lipids and terpens)) it was 10%; in [3] (TLC 7 (non-specific compounds)) it was 10%; in test [3] (TLC 4d (amino acids)), 1%; in test [8] (TLC 6 (lipids and terpens)), 10%; in test [8] (TLC 7 (non-specific compounds)), 10%. Also, the Min. visual effect in test [4] is given as 1; in test [5] (at presence of TLC 6 biomarker), 0; in test [5] (at presence of TLC 7 biomarker) it was 0; in [6] (at presence of TLC 1 biomarker), 0; in test [6] (at presence of TLC 6 biomarker), 0; in test [6] (at presence of TLC 7 biomarker), 0. Further, the Min. visual effect in test [6] (setting [10]) was determined as 0; in test [7] (at presence of TLC 1 biomarker) it was 0; in [7] (at presence of TLC 2 biomarker) it was 0; in [7] (at presence of TLC 6 biomarker), 2; in [7] (at presence of TLC 7 biomarker) it was 3.
Turning to Bromoxynil, the “Min. of label dose of herbicide with effect” value in test [1] (TLC 6 (lipids and terpens)) came out at 1%; in [1] (TLC 7 (non-specific compounds)) it was 1%; in [2] (TLC 2 (phenolic compounds)), 10%; in test [2] (TLC 7 (non-specific compounds)) it was 1%; in test [9], 1%; in test [8] (TLC 6 (lipids and terpens)), 10%.

Source of the values: patent publication US20040029208A1, “Assay method and kit for testing biological material for exposure to stress using biomarkers” (priority 2000, published 2004).
